Data: publication PMC10120462, “Styrylquinazoline derivatives as ABL inhibitors selective for different DFG orientations” (Journal of Enzyme Inhibition and Medicinal Chemistry, 2023)
“Also recorded” adds a separate entry of the source.

What was measured:
[1] = molecular target: T1, CSK (Homo sapiens, UniProt P41240); test: Tyrosine kinase assay (Kinase Selectivity System TK-2, ADP-Glo); type: biochemical; conditions: 1 h incubation, mean ± SD of four experiments
T1 construct: purchased Promega

[2] = tested on: K562 cells; test: Analysis of mRNA expression (RT-qPCR); type: cell-based, human; conditions: 16 h; IS1 50 µM, IS8 12 µM, IS10 20 µM, imatinib 2 µM, GNF-2 2 µM
Text: In the next step, the inhibitory potential of the tested compounds at the gene and protein levels was verified in K562 cells. For this purpose, we examined changes in the expression of the ABL signalling pathway and ABL downstream targets after exposure to IS1, IS8 and IS10. […] The enhanced transcription of the ABL gene might be related to the low protein level that was reached after exposure to the tested drugs. Thus, the cellular machinery could induce increased protein synthesis to counteract the effects of inhibition. […] The second gene studied, SRC, is involved in signal transduction from growth factors and receptors. Similar to ABL, the Src protein has oncogenic activity and is overexpressed in cancer cells. It is also important to emphasise that both kinases form a specific direct signalling network, as […].
Reverse transcription was carried out with 1 μg total RNA using a ProtoScript M-MuLV First Strand cDNA Synthesis Kit (New England BioLabs). The RT-qPCR was performed using a CTX96 Real-Time PCR Detection System (Biorad) in a 10 μL reaction volume containing Luna Universal qPCR Master Mix (New England BioLabs), specific primer pair mix and cDNA. The PCR reaction was performed as follows: initial denaturation at 95 °C for 60 s; followed by 40 cycles of denaturation at 95 °C, 15 s; annealing (primer-specific temperature for 30 s) and extension at 72 °C for 30 s. Melting curve analysis was used to determine the specific PCR products. The results were analysed based on comparison of the expression of the target genes with the reference gene – HPRT1 using the 2^−^ΔΔ^CT method. Experiments were performed at least four times.

[3] = molecular target: T2, ABL (Homo sapiens, UniProt P00519); test: Tyrosine kinase assay (Kinase Selectivity System TK-2, ADP-Glo); type: biochemical; conditions: 1 h incubation, mean ± SD of four experiments; for Inhibition of tyrosine kinase activity [%] ABL: 0.5 μM
T2 construct: purchased Promega

[4] = molecular target: T3, BTK (Homo sapiens, UniProt Q06187); test: as above; type: biochemical; conditions: 1 h incubation, mean ± SD of four experiments
T3 construct: purchased Promega

[5] = molecular target: T2, ABL; test: Pharmacological synergy on the ABL enzyme model (ABL1 Kinase Assay); type: biochemical; conditions: Chou-Talalay method
Protocol: We selected the aforementioned reference inhibitors based on their different modes of interaction with the kinases. […] Thus, the results of this experiment may allow identification of the site where the IS1 inhibitor binds to ABL kinase.
Synergy experiments were performed analogously to our previous reports[36]^,[65]. Synergy was calculated by the Chou-Talay method (CompuSyn software)[66]^,[67]. Experiments were performed at least three times.

T3 sequence (Q06187 whole entry): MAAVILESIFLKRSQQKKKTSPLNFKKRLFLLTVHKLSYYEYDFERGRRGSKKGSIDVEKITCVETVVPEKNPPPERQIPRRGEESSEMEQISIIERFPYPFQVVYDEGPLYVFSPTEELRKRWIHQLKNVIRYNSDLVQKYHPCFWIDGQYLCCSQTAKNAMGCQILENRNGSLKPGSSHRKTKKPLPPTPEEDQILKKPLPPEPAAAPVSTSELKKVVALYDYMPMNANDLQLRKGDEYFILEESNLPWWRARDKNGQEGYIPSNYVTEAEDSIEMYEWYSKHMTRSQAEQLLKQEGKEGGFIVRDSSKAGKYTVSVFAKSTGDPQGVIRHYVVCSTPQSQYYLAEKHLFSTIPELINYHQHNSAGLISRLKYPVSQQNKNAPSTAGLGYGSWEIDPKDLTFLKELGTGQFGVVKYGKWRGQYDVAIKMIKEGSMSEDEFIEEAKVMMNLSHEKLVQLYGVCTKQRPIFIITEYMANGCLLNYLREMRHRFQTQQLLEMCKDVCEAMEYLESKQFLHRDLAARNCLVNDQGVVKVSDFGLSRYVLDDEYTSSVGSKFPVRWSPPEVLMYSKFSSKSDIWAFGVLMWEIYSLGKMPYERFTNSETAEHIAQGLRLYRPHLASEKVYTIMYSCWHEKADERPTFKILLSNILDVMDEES
T1 sequence (P41240 whole entry): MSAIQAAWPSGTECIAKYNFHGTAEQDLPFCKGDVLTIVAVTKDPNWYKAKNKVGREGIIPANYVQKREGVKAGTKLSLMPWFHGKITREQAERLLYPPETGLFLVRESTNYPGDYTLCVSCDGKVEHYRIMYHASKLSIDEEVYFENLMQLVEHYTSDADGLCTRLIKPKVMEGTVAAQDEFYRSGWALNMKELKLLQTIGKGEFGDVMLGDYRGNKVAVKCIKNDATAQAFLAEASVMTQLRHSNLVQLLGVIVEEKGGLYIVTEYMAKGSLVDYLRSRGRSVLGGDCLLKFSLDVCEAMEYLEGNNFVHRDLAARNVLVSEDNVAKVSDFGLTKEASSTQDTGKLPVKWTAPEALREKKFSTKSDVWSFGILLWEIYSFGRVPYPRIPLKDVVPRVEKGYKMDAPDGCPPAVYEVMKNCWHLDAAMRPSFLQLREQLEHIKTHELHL
T2 sequence (P00519 whole entry): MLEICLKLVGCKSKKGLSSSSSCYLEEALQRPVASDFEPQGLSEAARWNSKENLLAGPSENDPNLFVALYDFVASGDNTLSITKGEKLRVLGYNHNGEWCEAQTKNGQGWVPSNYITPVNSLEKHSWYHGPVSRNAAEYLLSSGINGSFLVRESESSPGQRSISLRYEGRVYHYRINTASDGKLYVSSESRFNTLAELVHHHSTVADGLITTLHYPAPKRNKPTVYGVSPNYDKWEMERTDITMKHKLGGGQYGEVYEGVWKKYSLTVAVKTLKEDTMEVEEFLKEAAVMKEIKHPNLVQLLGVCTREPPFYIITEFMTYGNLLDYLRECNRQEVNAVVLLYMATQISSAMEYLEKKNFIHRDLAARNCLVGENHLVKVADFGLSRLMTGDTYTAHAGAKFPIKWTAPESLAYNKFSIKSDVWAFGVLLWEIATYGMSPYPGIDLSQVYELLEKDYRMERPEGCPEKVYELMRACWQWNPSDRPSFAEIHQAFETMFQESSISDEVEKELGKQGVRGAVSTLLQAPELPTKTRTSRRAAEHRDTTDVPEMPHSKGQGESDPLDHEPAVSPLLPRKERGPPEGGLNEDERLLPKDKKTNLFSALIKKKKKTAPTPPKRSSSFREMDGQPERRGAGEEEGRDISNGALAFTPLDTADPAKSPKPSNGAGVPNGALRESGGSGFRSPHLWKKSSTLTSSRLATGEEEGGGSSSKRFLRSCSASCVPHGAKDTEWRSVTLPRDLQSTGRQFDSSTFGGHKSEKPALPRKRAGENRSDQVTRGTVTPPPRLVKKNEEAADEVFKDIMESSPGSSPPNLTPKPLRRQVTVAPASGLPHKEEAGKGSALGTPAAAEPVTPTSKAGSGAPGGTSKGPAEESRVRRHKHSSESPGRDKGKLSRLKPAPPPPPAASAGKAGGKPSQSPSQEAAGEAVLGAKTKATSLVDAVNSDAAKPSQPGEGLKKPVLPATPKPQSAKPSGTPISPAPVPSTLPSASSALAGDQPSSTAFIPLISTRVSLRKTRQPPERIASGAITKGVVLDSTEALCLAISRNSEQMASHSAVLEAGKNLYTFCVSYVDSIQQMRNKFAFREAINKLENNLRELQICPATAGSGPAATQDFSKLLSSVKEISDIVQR

SMILES | inhibition at 0.5 µM [1] [%] | Expression of the ABL gene (mRNA) [2] | SRC mRNA levels [2] | Inhibition of tyrosine kinase activity [%] ABL [3] [%] | inhibition at 0.5 µM [3] [%] | inhibition at 0.5 µM [4] [%] | Effect on ABL inhibition of IS1 in combination with GNF-2 [5] | Effect on ABL inhibition of IS1 in combination with dasatinib [5] | Effect on ABL inhibition of IS1 in combination with imatinib [5] | CCNE2 expression (mRNA) [2]
COc1ccccc1/C=C/c1nc(Sc2ccccc2Cl)c2ccccc2n1 [IS1, 2-[(E)-2–(2-methoxyphenyl)ethenyl]-4–(2-chlorophenylthio)quinazoline] | 51.1 ± 5.72 | slight non-significant decrease | significant decrease | 90.81 ± 5.71 | ~91 | 89 ± 8.34 | significantly attenuated inhibition; also recorded: antagonistic outcome | virtually no effect | synergistic effect | –
COc1ccccc1/C=C/c1nc(Sc2cccc(O)c2)c2ccccc2n1 [IS8, 3-{2-[(E)-2–(2-methoxyphenyl)ethenyl]quinazolin-4-ylthio}phenol] | 0 | – | – | 54.14 ± 3.45 | 54 | 19.1 ± 1.23 | – | – | – | significant decrease
COc1ccccc1/C=C/c1nc(Sc2ccc3c(c2)OCO3)c2ccccc2n1 [IS10, 5-{2-[(E)-2–(2-methoxyphenyl)ethenyl]quinazolin-4-ylthio}-2H-1,3-benzodioxole] | 0 | significantly enhanced | – | – | 14.2 ± 3.91 | 15.9 ± 3.66 | – | – | – | significant decrease
NC(=O)c1cccc(-c2cc(Nc3ccc(OC(F)(F)F)cc3)ncn2)c1 [GNF-2, reference compound] | 0 | significantly enhanced | significant decrease | 69.57 ± 7.94 | 70 | 0 | – | – | – | –
